Experimental data: ChEMBL document CHEMBL1201862, “PubChem BioAssay data set” (2004)
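Values below derive from 48-hour exposures of cells grown in 96-well plates, with endpoints linearly interpolated between the two concentrations bracketing the appropriate inhibition level. Abbreviation: GI50, concentration required for 50% inhibition of growth.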 Active and inactive are the calls of the source. No stated cut-off is given here; in the data, active = GI50 up to about 1.1 µM and inactive = higher. Where a SMILES comes first, the peptide text is derived from it. [ ]: non-standard residue; d: D form. The star is where a group is joined. ξ: configuration not given here. ξF = NC(Cc1ccccc1)C(=O)O; Cbz = O=C(OCc1ccccc1)*; Aib = CC(C)(N)C(=O)O; NHNH2 = NN*

Experiments:
Assay in all cases: DTP human tumour cell line panel, 48 h
786-0 = system: 786-0
HCC 2998 = system: HCC 2998
HL-60 = system: HL-60
HOP-92 = system: HOP-92
HT-29 = system: HT-29
Hs-578T = system: Hs-578T
K562 = system: K562
M14 = system: M14
MCF7 = system: MCF7
OVCAR-3 = system: OVCAR-3
OVCAR-5 = system: OVCAR-5
PC-3 = system: PC-3
RXF 393 = system: RXF 393
SK-MEL-5 = system: SK-MEL-5
SK-OV-3 = system: SK-OV-3
T47D = system: T47D
TK-10 = system: TK-10
U-251 = system: U-251
UO-31 = system: UO-31
SR = system: SR

Measured: GI50

CSCCC(NC(=O)C(Cc1c[nH]c2ccccc12)NC(=O)CCNC(=O)OC(C)(C)C)C(=O)NC(CC(=O)O)C(=O)NC(Cc1ccccc1)C(N)=O (stereo not drawn)
inactive: 786-0 > 50 µM | HCC 2998 > 50 µM | HL-60 > 50 µM | HOP-92 > 50 µM | HT-29 > 50 µM | Hs-578T > 50 µM | K562 > 50 µM | M14 > 50 µM | MCF7 > 50 µM | OVCAR-3 > 50 µM | OVCAR-5 > 50 µM | PC-3 > 50 µM | RXF 393 > 50 µM | SK-MEL-5 > 50 µM | SK-OV-3 > 50 µM | T47D > 50 µM | TK-10 > 50 µM | U-251 > 50 µM

O=C(/C=C/c1ccc(-c2ccccc2)cc1)NCc1ccc(C(=O)NCc2ccccc2)cc1
inactive: 786-0 > 100 µM | HCC 2998 > 100 µM | HOP-92 > 100 µM | HT-29 71.1 µM | Hs-578T > 100 µM | M14 > 100 µM | MCF7 > 100 µM | OVCAR-3 > 100 µM | OVCAR-5 > 100 µM | PC-3 > 100 µM | RXF 393 12.7 µM | SK-MEL-5 > 100 µM | SK-OV-3 > 100 µM | T47D > 100 µM | TK-10 > 100 µM | U-251 > 100 µM | UO-31 > 100 µM

CN[C@H]1CC[C@]23C[C@]24CC[C@]2(C)[C@@H]([C@H](C)N(C)C)CC[C@@]2(C)[C@@H]4CC[C@H]3C1(C)C
inactive: 786-0 6.78 µM | HCC 2998 13.4 µM | HL-60 10.8 µM | HOP-92 10.9 µM | HT-29 2.85 µM | Hs-578T 16.8 µM | M14 12.2 µM | MCF7 15.6 µM | OVCAR-3 14.3 µM | OVCAR-5 21 µM | PC-3 9.08 µM | SK-MEL-5 15.1 µM | SK-OV-3 19.1 µM | T47D 14.6 µM | TK-10 18.3 µM | U-251 13.7 µM | UO-31 11.9 µM

COc1cccc2c1-c1nc(N)c3c(OC)cccc3c1C2=O
inactive: 786-0 35.9 µM | HL-60 19.6 µM | HOP-92 > 100 µM | HT-29 28.8 µM | Hs-578T 22.2 µM | K562 64.7 µM | M14 > 100 µM | MCF7 > 100 µM | OVCAR-3 > 100 µM | OVCAR-5 > 100 µM | PC-3 > 100 µM | SK-MEL-5 > 100 µM | SK-OV-3 > 100 µM | SR > 100 µM | T47D > 100 µM | TK-10 > 100 µM | U-251 > 100 µM | UO-31 45.1 µM

COc1cc(/C=N/NC(=O)c2ccc(NC(C)=O)cc2OC)ccc1O
inactive: 786-0 > 100 µM | HL-60 > 100 µM | HOP-92 22.6 µM | HT-29 > 100 µM | Hs-578T 32.4 µM | K562 > 100 µM | M14 > 100 µM | MCF7 > 100 µM | OVCAR-3 > 100 µM | OVCAR-5 > 100 µM | PC-3 43.5 µM | RXF 393 39.3 µM | SK-MEL-5 > 100 µM | SK-OV-3 > 100 µM | SR > 100 µM | T47D 84.5 µM | UO-31 > 100 µM

NC1(CCNC(=O)c2ccccc2)CCN(C(=O)c2ccccc2)CC1
inactive: 786-0 > 100 µM | HOP-92 50.7 µM | HT-29 > 100 µM | Hs-578T > 100 µM | K562 > 100 µM | M14 > 100 µM | MCF7 > 100 µM | OVCAR-5 > 100 µM | PC-3 > 100 µM | RXF 393 > 100 µM | SK-MEL-5 > 100 µM | SK-OV-3 > 100 µM | SR > 100 µM | T47D > 100 µM | TK-10 > 100 µM | U-251 > 100 µM | UO-31 > 100 µM

Cc1cn(C2CC(N=[N+]=[N-])C(CO)O2)c(=O)n(CCCCBr)c1=O (stereo not drawn)
inactive: 786-0 > 100 µM | HCC 2998 65.5 µM | HOP-92 > 100 µM | HT-29 > 100 µM | Hs-578T > 100 µM | K562 > 100 µM | M14 > 100 µM | MCF7 60.5 µM | OVCAR-3 40.9 µM | OVCAR-5 > 100 µM | PC-3 26.3 µM | RXF 393 > 100 µM | SK-OV-3 > 100 µM | T47D > 100 µM | TK-10 > 100 µM | U-251 18.8 µM | UO-31 > 100 µM

O=C(CCc1ccccc1)ON1C(=S)C(c2ccccc2)(c2ccccc2)N=C1Sc1ccccc1
inactive: 786-0 26.5 µM | HCC 2998 46.6 µM | HL-60 31.6 µM | HOP-92 > 100 µM | HT-29 24.5 µM | Hs-578T 38.7 µM | K562 36.1 µM | M14 82.6 µM | MCF7 33.7 µM | OVCAR-3 60 µM | OVCAR-5 > 100 µM | PC-3 34.3 µM | RXF 393 > 100 µM | SK-MEL-5 37.5 µM | SK-OV-3 45.1 µM | T47D 59.4 µM | TK-10 89.9 µM | UO-31 60.3 µM

Cc1nc2n(c1/C=C1/C(=O)Nc3ccccc31)CCS2
inactive: 786-0 64.1 µM | HCC 2998 20.8 µM | HL-60 32.1 µM | HOP-92 > 100 µM | HT-29 38.4 µM | Hs-578T 39.5 µM | K562 33.3 µM | M14 67.5 µM | MCF7 24.3 µM | OVCAR-3 70.1 µM | OVCAR-5 > 100 µM | PC-3 26.5 µM | RXF 393 18.7 µM | SK-MEL-5 31.5 µM | SK-OV-3 68.2 µM | T47D 25.8 µM | TK-10 31.6 µM | U-251 42.4 µM | UO-31 27.5 µM

Cc1nc(Nc2ccccc2Cl)sc1C(=O)CC(=O)C(N)=O
inactive: 786-0 58.9 µM | HCC 2998 51.4 µM | HL-60 11.8 µM | HOP-92 7.98 µM | HT-29 18.8 µM | Hs-578T 59.2 µM | K562 33.4 µM | M14 75.3 µM | MCF7 29.3 µM | OVCAR-3 > 100 µM | OVCAR-5 > 100 µM | PC-3 19.7 µM | RXF 393 48.8 µM | SK-OV-3 44.9 µM | T47D > 100 µM | TK-10 > 100 µM | U-251 41.9 µM | UO-31 21.7 µM

CC(C)(NC(=O)OCc1ccccc1)C(=O)NC(Cc1ccccc1)C(=O)NN (stereo not drawn) (Cbz-[Aib]-[ξF]-NHNH2)
inactive: 786-0 > 100 µM | HOP-92 > 100 µM | HT-29 > 100 µM | Hs-578T > 100 µM | K562 > 100 µM | M14 > 100 µM | MCF7 > 100 µM | OVCAR-3 > 100 µM | OVCAR-5 > 100 µM | PC-3 > 100 µM | RXF 393 > 100 µM | SK-MEL-5 > 100 µM | SK-OV-3 > 100 µM | T47D > 100 µM | TK-10 > 100 µM | U-251 > 100 µM | UO-31 > 100 µM
